{"source": "patent US9708314B2", "about": "“Heterocyclic amide compound” (NISSAN CHEMICAL INDUSTRIES, LTD., priority 2013, dated 2017)", "assay_type_in_all_cases": "in vivo", "key": {"[1]": {"tested_on": "Cyperus difformis", "experiment": "Test Example 3: herbicidal effect by application to foliage (Wagner pot, water depth 0.1-0.5 cm)", "settings": "Nineteenth Table; application to foliage; application herbicide amount 320 g/ha", "procedure,_shortened": "(§1)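 Foliar spray, 14-day-old plants, emulsion diluted to target g/ha; rated 3 wk post-application, 0–5 scale (0 ≤5%, 5 ≥90% herbicidal ratio). Greenhouse 25–30 °C, alluvial soil.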"}, "[2]": {"tested_on": "Echinochloa crus-galli var. crus-galli", "experiment": "Test Example 3: herbicidal effect by application to foliage (Wagner pot, water depth 0.1-0.5 cm)", "settings": "Nineteenth Table; application to foliage; application herbicide amount 320 g/ha", "procedure,_shortened": "as §1"}, "[3]": {"tested_on": "Leptochloa chinensis", "experiment": "Test Example 3: herbicidal effect by application to foliage (Wagner pot, water depth 0.1-0.5 cm)", "settings": "Nineteenth Table; application to foliage; application herbicide amount 320 g/ha", "procedure,_shortened": "as §1"}, "[4]": {"tested_on": "directly sowed Oryza sativa", "experiment": "Test Example 3: effect on crop by application to foliage (Wagner pot, water depth 0.1-0.5 cm)", "settings": "Nineteenth Table; application to foliage; application herbicide amount 320 g/ha", "procedure,_shortened": "as §1"}, "[5]": {"tested_on": "Abutilon theophrasti", "experiment": "Test Example 4: herbicidal effect by application to foliage (diluvial soil, plastic box)", "settings": "Application herbicide amount 320 g/ha; foliage application", "procedure,_shortened": "(§2)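 Seeds sown in sterilized diluvial soil, covered ~1.5 cm, grown 14 days in greenhouse at 25° C. to 30° C. Emulsion formulation diluted in water to set rate (g/ha) and sprayed onto stems and leaves. Effect scored visually 3 weeks later on 0–5 scale (5 = ≥90% herbicidal ratio, 0 = ≤5%).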"}, "[6]": {"tested_on": "Alopecurus myosuroides", "experiment": "Test Example 4: herbicidal effect by application to foliage (diluvial soil, plastic box)", "settings": "Application herbicide amount 320 g/ha; foliage application", "procedure,_shortened": "as §2"}, "[7]": {"tested_on": "Amaranthus retroflexus", "experiment": "Test Example 4: herbicidal effect by application to foliage (diluvial soil, plastic box)", "settings": "Application herbicide amount 320 g/ha; foliage application", "procedure,_shortened": "as §2"}, "[8]": {"tested_on": "Apera spica-venti.", "experiment": "Test Example 4: herbicidal effect by application to foliage (diluvial soil, plastic box)", "settings": "Application herbicide amount 320 g/ha; foliage application", "procedure,_shortened": "as §2"}, "[9]": {"tested_on": "Avena fatua", "experiment": "Test Example 4: herbicidal effect by application to foliage (diluvial soil, plastic box)", "settings": "Application herbicide amount 320 g/ha; foliage application", "procedure,_shortened": "as §2"}, "[10]": {"tested_on": "Chenopodium album", "experiment": "Test Example 4: herbicidal effect by application to foliage (diluvial soil, plastic box)", "settings": "Application herbicide amount 320 g/ha; foliage application", "procedure,_shortened": "as §2"}, "[11]": {"tested_on": "Digitaria ciliaris", "experiment": "Test Example 4: herbicidal effect by application to foliage (diluvial soil, plastic box)", "settings": "Application herbicide amount 320 g/ha; foliage application", "procedure,_shortened": "as §2"}, "[12]": {"tested_on": "Echinochloa crus-galli var. crus-galli", "experiment": "Test Example 4: herbicidal effect by application to foliage (diluvial soil, plastic box)", "settings": "Application herbicide amount 320 g/ha; foliage application", "procedure,_shortened": "as §2"}, "[13]": {"tested_on": "Galium spurium", "experiment": "Test Example 4: herbicidal effect by application to foliage (diluvial soil, plastic box)", "settings": "Application herbicide amount 320 g/ha; foliage application", "procedure,_shortened": "as §2"}, "[14]": {"tested_on": "Lolium multiflorum Lam.", "experiment": "Test Example 4: herbicidal effect by application to foliage (diluvial soil, plastic box)", "settings": "Application herbicide amount 320 g/ha; foliage application", "procedure,_shortened": "as §2"}, "[15]": {"tested_on": "Setaria viridis", "experiment": "Test Example 4: herbicidal effect by application to foliage (diluvial soil, plastic box)", "settings": "Application herbicide amount 320 g/ha; foliage application", "procedure,_shortened": "as §2"}, "[16]": {"tested_on": "Stellaria media", "experiment": "Test Example 4: herbicidal effect by application to foliage (diluvial soil, plastic box)", "settings": "Application herbicide amount 320 g/ha; foliage application", "procedure,_shortened": "as §2"}, "[17]": {"tested_on": "Veronica persica", "experiment": "Test Example 4: herbicidal effect by application to foliage (diluvial soil, plastic box)", "settings": "Application herbicide amount 320 g/ha; foliage application", "procedure,_shortened": "as §2"}, "[18]": {"tested_on": "Beta vulgaris ssp. vulgaris", "experiment": "Test Example 4: effect on crop by application to foliage (diluvial soil, plastic box)", "settings": "Application herbicide amount 320 g/ha; foliage application", "procedure,_shortened": "as §2"}, "[19]": {"tested_on": "Brassica campestris L.", "experiment": "Test Example 4: effect on crop by application to foliage (diluvial soil, plastic box)", "settings": "Application herbicide amount 320 g/ha; foliage application", "procedure,_shortened": "as §2"}, "[20]": {"tested_on": "Glycine max", "experiment": "Test Example 4: effect on crop by application to foliage (diluvial soil, plastic box)", "settings": "Application herbicide amount 320 g/ha; foliage application", "procedure,_shortened": "as §2"}, "[21]": {"tested_on": "Triticum aestivum", "experiment": "Test Example 4: effect on crop by application to foliage (diluvial soil, plastic box)", "settings": "Application herbicide amount 320 g/ha; foliage application", "procedure,_shortened": "as §2"}, "[22]": {"tested_on": "Zea mays", "experiment": "Test Example 4: effect on crop by application to foliage (diluvial soil, plastic box)", "settings": "Application herbicide amount 320 g/ha; foliage application", "procedure,_shortened": "as §2"}}}
{"smiles": "CCN(C)c1nnc2c(C(=O)Nc3nnco3)ccc(C(F)(F)F)n12", "note": "[1-137]", "values": [{"measurement": "E (herbicidal effect grade)", "setting": "[1]", "value": "4 (Herbicidal ratio of 70% or more and less than 90%)"}, {"measurement": "H (herbicidal effect grade)", "setting": "[2]", "value": "5 (Herbicidal ratio of 90% or more (almost completely withered))"}, {"measurement": "D (herbicidal effect grade)", "setting": "[3]", "value": "5 (Herbicidal ratio of 90% or more (almost completely withered))"}, {"measurement": "b (effect on crop grade)", "setting": "[4]", "value": "3 (Herbicidal ratio of 40% or more and less than 70%)"}, {"measurement": "M (Abutilon theophrasti) herbicidal effect grade", "setting": "[5]", "value": "3 (Herbicidal ratio of 40% or more and less than 70%)"}, {"measurement": "J (Alopecurus myosuroides) herbicidal effect grade", "setting": "[6]", "value": "2 (Herbicidal ratio of 20% or more and less than 40%)"}, {"measurement": "N (Amaranthus retroflexus) herbicidal effect grade", "setting": "[7]", "value": "4 (Herbicidal ratio of 70% or more and less than 90%)"}, {"measurement": "L (Apera spica-venti.) herbicidal effect grade", "setting": "[8]", "value": "4 (Herbicidal ratio of 70% or more and less than 90%)"}, {"measurement": "I (Avena fatua) herbicidal effect grade", "setting": "[9]", "value": "3 (Herbicidal ratio of 40% or more and less than 70%)"}, {"measurement": "O (Chenopodium album) herbicidal effect grade", "setting": "[10]", "value": "5 (Herbicidal ratio of 90% or more (almost completely withered))"}, {"measurement": "F (Digitaria ciliaris) herbicidal effect grade", "setting": "[11]", "value": "4 (Herbicidal ratio of 70% or more and less than 90%)"}, {"measurement": "H (Echinochloa crus-galli var. crus-galli) herbicidal effect grade", "setting": "[12]", "value": "5 (Herbicidal ratio of 90% or more (almost completely withered))"}, {"measurement": "Q (Galium spurium) herbicidal effect grade", "setting": "[13]", "value": "3 (Herbicidal ratio of 40% or more and less than 70%)"}, {"measurement": "K (Lolium multiflorum Lam.) herbicidal effect grade", "setting": "[14]", "value": "2 (Herbicidal ratio of 20% or more and less than 40%)"}, {"measurement": "G (Setaria viridis) herbicidal effect grade", "setting": "[15]", "value": "5 (Herbicidal ratio of 90% or more (almost completely withered))"}, {"measurement": "P (Stellaria media) herbicidal effect grade", "setting": "[16]", "value": "5 (Herbicidal ratio of 90% or more (almost completely withered))"}, {"measurement": "R (Veronica persica) herbicidal effect grade", "setting": "[17]", "value": "5 (Herbicidal ratio of 90% or more (almost completely withered))"}, {"measurement": "f (Beta vulgaris ssp. vulgaris) effect on crop grade", "setting": "[18]", "value": "5 (Herbicidal ratio of 90% or more (almost completely withered))"}, {"measurement": "g (Brassica campestris L.) effect on crop grade", "setting": "[19]", "value": "5 (Herbicidal ratio of 90% or more (almost completely withered))"}, {"measurement": "d (Glycine max) effect on crop grade", "setting": "[20]", "value": "4 (Herbicidal ratio of 70% or more and less than 90%)"}, {"measurement": "e (Triticum aestivum) effect on crop grade", "setting": "[21]", "value": "2 (Herbicidal ratio of 20% or more and less than 40%)"}, {"measurement": "c (Zea mays) effect on crop grade", "setting": "[22]", "value": "0 (Herbicidal ratio of 5% or less (almost no effect))"}]}
{"smiles": "CCN(CC)c1nnc2c(C(=O)Nc3nnco3)ccc(C(F)(F)F)n12", "note": "[1-138]", "values": [{"measurement": "E (herbicidal effect grade)", "setting": "[1]", "value": "4 (Herbicidal ratio of 70% or more and less than 90%)"}, {"measurement": "H (herbicidal effect grade)", "setting": "[2]", "value": "5 (Herbicidal ratio of 90% or more (almost completely withered))"}, {"measurement": "D (herbicidal effect grade)", "setting": "[3]", "value": "5 (Herbicidal ratio of 90% or more (almost completely withered))"}, {"measurement": "b (effect on crop grade)", "setting": "[4]", "value": "3 (Herbicidal ratio of 40% or more and less than 70%)"}, {"measurement": "M (Abutilon theophrasti) herbicidal effect grade", "setting": "[5]", "value": "3 (Herbicidal ratio of 40% or more and less than 70%)"}, {"measurement": "J (Alopecurus myosuroides) herbicidal effect grade", "setting": "[6]", "value": "1 (Herbicidal ratio of 5% or more and less than 20%)"}, {"measurement": "N (Amaranthus retroflexus) herbicidal effect grade", "setting": "[7]", "value": "4 (Herbicidal ratio of 70% or more and less than 90%)"}, {"measurement": "L (Apera spica-venti.) herbicidal effect grade", "setting": "[8]", "value": "3 (Herbicidal ratio of 40% or more and less than 70%)"}, {"measurement": "I (Avena fatua) herbicidal effect grade", "setting": "[9]", "value": "2 (Herbicidal ratio of 20% or more and less than 40%)"}, {"measurement": "O (Chenopodium album) herbicidal effect grade", "setting": "[10]", "value": "5 (Herbicidal ratio of 90% or more (almost completely withered))"}, {"measurement": "F (Digitaria ciliaris) herbicidal effect grade", "setting": "[11]", "value": "4 (Herbicidal ratio of 70% or more and less than 90%)"}, {"measurement": "H (Echinochloa crus-galli var. crus-galli) herbicidal effect grade", "setting": "[12]", "value": "5 (Herbicidal ratio of 90% or more (almost completely withered))"}, {"measurement": "Q (Galium spurium) herbicidal effect grade", "setting": "[13]", "value": "2 (Herbicidal ratio of 20% or more and less than 40%)"}, {"measurement": "K (Lolium multiflorum Lam.) herbicidal effect grade", "setting": "[14]", "value": "1 (Herbicidal ratio of 5% or more and less than 20%)"}, {"measurement": "G (Setaria viridis) herbicidal effect grade", "setting": "[15]", "value": "3 (Herbicidal ratio of 40% or more and less than 70%)"}, {"measurement": "P (Stellaria media) herbicidal effect grade", "setting": "[16]", "value": "5 (Herbicidal ratio of 90% or more (almost completely withered))"}, {"measurement": "R (Veronica persica) herbicidal effect grade", "setting": "[17]", "value": "5 (Herbicidal ratio of 90% or more (almost completely withered))"}, {"measurement": "f (Beta vulgaris ssp. vulgaris) effect on crop grade", "setting": "[18]", "value": "5 (Herbicidal ratio of 90% or more (almost completely withered))"}, {"measurement": "g (Brassica campestris L.) effect on crop grade", "setting": "[19]", "value": "4 (Herbicidal ratio of 70% or more and less than 90%)"}, {"measurement": "d (Glycine max) effect on crop grade", "setting": "[20]", "value": "3 (Herbicidal ratio of 40% or more and less than 70%)"}, {"measurement": "e (Triticum aestivum) effect on crop grade", "setting": "[21]", "value": "1 (Herbicidal ratio of 5% or more and less than 20%)"}, {"measurement": "c (Zea mays) effect on crop grade", "setting": "[22]", "value": "0 (Herbicidal ratio of 5% or less (almost no effect))"}]}
